The values below come from patent US9505781B2, “Compositions comprising thienopyrimidine and thienopyridine compounds and methods of use thereof” (The Regents of the University of Michigan, priority 2013, dated 2016).

The target in this experiment is T1, menin-MLL interaction (Homo sapiens, UniProt O00255).
T1 sequence (O00255 1-610): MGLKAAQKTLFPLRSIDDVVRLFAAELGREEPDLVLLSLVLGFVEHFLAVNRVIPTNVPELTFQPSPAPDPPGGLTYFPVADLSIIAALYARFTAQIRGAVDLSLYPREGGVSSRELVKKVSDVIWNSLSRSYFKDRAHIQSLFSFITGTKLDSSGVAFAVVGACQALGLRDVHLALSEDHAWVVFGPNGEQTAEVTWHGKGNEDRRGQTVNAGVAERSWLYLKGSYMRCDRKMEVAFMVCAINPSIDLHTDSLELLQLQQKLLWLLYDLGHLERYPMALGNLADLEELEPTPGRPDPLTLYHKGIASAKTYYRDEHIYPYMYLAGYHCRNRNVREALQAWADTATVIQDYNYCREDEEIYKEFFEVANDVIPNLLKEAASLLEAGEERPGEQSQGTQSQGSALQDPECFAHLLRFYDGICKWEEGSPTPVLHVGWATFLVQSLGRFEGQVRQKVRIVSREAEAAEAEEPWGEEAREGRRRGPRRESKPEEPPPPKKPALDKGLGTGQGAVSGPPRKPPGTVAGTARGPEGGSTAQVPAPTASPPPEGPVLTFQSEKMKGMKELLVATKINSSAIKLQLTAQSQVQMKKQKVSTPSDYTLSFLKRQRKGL
The experiment is described as follows: biochemical.
Source text: Compounds that inhibit the interaction decrease the fluorescence anisotropy which is being used as a read-out for compound screening and for IC50 determination.
Broadly, the IC50 is the concentration that inhibits the measured activity by half. Low values mean greater potency in that assay, high ones weaker potency in that assay. Regarding `N#Cc1cc2c(O)c(CN3CCC(Nc4ncnc5sc(CC(F)(F)F)cc45)CC3)ccc2[nH]1` [Compound 235], the IC50 was 100 to 500 nM. On to `CS(=O)(=O)c1cc2cc(CN3CCC(Nc4ncnc5sc(CC(F)(F)F)cc45)CC3)ccc2[nH]1` [Compound 236], for which the IC50 lay in the range of 100 to 500 nM.

`COCC(O)Cn1c(C#N)cc2cc(CN3CCC(Nc4ncnc5sc(CC(F)(F)F)cc45)CC3)ccc21` (centres unmarked) [Compound 237]: the IC50 is 100 to 500 nM. In the case of `N#Cc1cc2cc(CN3CCC(N(CCN4CCOCC4)c4ncnc5sc(CC(F)(F)F)cc45)CC3)ccc2[nH]1` [Compound 238], the IC50 is 100 to 500 nM. With `CNC(=O)CCn1c(C#N)cc2cc(CN3CCC(Nc4ncnc5sc(CC(F)(F)F)cc45)CC3)ccc21` [Compound 239], the IC50 is 100 to 500 nM. In turn, `N#Cc1cc2cc(CN3CCC(Nc4ncnc5sc(CC(F)(F)F)cc45)CC3)ccc2n1Cc1nn[nH]n1` [Compound 240] gave an IC50 of 100 to 500 nM. Next, `Cc1noc(C)c1Cn1c(C#N)cc2cc(CN3CCC(Nc4ncnc5sc(CC(F)(F)F)cc45)CC3)ccc21` [Compound 241]: 100 to 500 nM; `OCc1cccc2c(CN3CCC(Nc4ncnc5sc(CC(F)(F)F)cc45)CC3)c[nH]c12` [Compound 242]: 100 to 500 nM; `FC(F)(F)Cc1cc2c(NC3CCN(Cc4c[nH]c5ccccc45)CC3)ncnc2s1` [Compound 243]: 100 to 500 nM.

On to `CCOc1c(CN2CCC(Nc3ncnc4sc(CC(F)(F)F)cc34)CC2)ccc2[nH]c(C#N)cc12` [Compound 244], for which the IC50 fell in the range of 100 to 500 nM.

On to `N#Cc1cc2cc(CN3CCC(Nc4ncnc5sc(CC(F)(F)F)cc45)CC3)cc(F)c2[nH]1` [Compound 245], for which the IC50 was in the range of 100 to 500 nM. For the molecule `N#Cc1cc2cc(CN3CCC(Nc4ncnc5sc(CC(F)(F)F)cc45)CC3)cc(F)c2n1CC(N)=O` [Compound 246], the IC50 lay in the range of 100 to 500 nM.

On to `CC(C(N)=O)n1c(C#N)cc2cc(CN3CCC(Nc4ncnc5sc(CC(F)(F)F)cc45)CC3)ccc21` (centres unmarked) [Compound 247], for which the IC50 was 100 to 500 nM. The result for `N#Cc1nc2ccc(CN3CCC(Nc4ncnc5sc(CC(F)(F)F)cc45)CC3)cc2o1` [Compound 248] reads 500 to 2000 nM; that for `N#Cc1nc2cc(CN3CCC(Nc4ncnc5sc(CC(F)(F)F)cc45)CC3)ccc2[nH]1` [Compound 249], 500 to 2000 nM. The molecule `O=c1[nH]c2ccc(CN3CCC(Nc4ncnc5sc(CC(F)(F)F)cc45)CC3)cc2[nH]1` [Compound 250] came in with an IC50 of 500 to 2000 nM. The result for `CC(C)NCC(O)Cn1c(C#N)cc2cc(CN3CCC(Nc4ncnc5sc(CC(F)(F)F)cc45)CC3)ccc21` (centres unmarked) [Compound 251] reads 500 to 2000 nM. The result for `N#CCc1ccc2[nH]cc(CN3CCC(Nc4ncnc5sc(CC(F)(F)F)cc45)CC3)c2c1` [Compound 252] reads 500 to 2000 nM. The result for `NS(=O)(=O)c1ccc(CN2CCC(CNc3ncnc4sc(CC(F)(F)F)cc34)CC2)c(Cl)c1` [Compound 253] reads 100 to 500 nM; that for `FC(F)(F)Cc1cc2c(NCC3CCN(Cc4ccc(Cl)cc4Cl)CC3)ncnc2s1` [Compound 254], 100 to 500 nM. In turn, `FC(F)(F)Cc1cc2c(NCC3CCN(Cc4ccc(N5CCCCC5)cc4)CC3)ncnc2s1` [Compound 255] had an IC50 of 100 to 500 nM. Next, `N#Cc1ccc(CN2CCC(CNc3ncnc4sc(CC(F)(F)F)cc34)CC2)c(Cl)c1` [Compound 256]: 100 to 500 nM. For `COc1ccc(CN2CCC(CNc3ncnc4sc(CC(F)(F)F)cc34)CC2)c(Cl)c1` [Compound 257], the 50% inhibitory concentration (IC50) is 100 to 500 nM.

Regarding `Cc1ccccc1CN1CCC(CNc2ncnc3sc(CC(F)(F)F)cc23)CC1` [Compound 258], the IC50 is 100 to 500 nM. Next, `FC(F)(F)Cc1cc2c(NCC3CCN(Cc4ccc(N5CCOCC5)cc4Cl)CC3)ncnc2s1` [Compound 259]: 100 to 500 nM. The result for `FC(F)(F)Cc1cc2c(NCC3CCN(Cc4ccccc4Cl)CC3)ncnc2s1` [Compound 260] reads 100 to 500 nM. Molecule `FC(F)(F)Cc1cc2c(NCC3CCN(Cc4ccc(Cl)cc4)CC3)ncnc2s1` [Compound 261] registered an IC50 of 100 to 500 nM. The result for `NS(=O)(=O)c1ccc(CN2CCC(CNc3ncnc4sc(CC(F)(F)F)cc34)CC2)cc1` [Compound 262] reads 100 to 500 nM; that for `N#Cc1ccc(CN2CCC(CNc3ncnc4sc(CC(F)(F)F)cc34)CC2)cc1` [Compound 263], 100 to 500 nM; that for `CCCCN(CC1CCN(Cc2ccc(C#N)cc2)CC1)c1ncnc2sc(CC(F)(F)F)cc12` [Compound 264], 500 to 2000 nM. Next, `NCc1ccc(CN2CCC(CNc3ncnc4sc(CC(F)(F)F)cc34)CC2)cc1` [Compound 265]: 500 to 2000 nM; `OCc1ccc(CN2CCC(CNc3ncnc4sc(CC(F)(F)F)cc34)CC2)cc1` [Compound 266]: 500 to 2000 nM; `CN1CCN(Cc2ccc(CN3CCC(CNc4ncnc5sc(CC(F)(F)F)cc45)CC3)cc2)CC1` [Compound 267]: 500 to 2000 nM. For `FC(F)(F)Cc1cc2c(NCC3CCN(Cc4ccc(C(F)(F)F)cc4Cl)CC3)ncnc2s1` [Compound 268], the half-inhibitory concentration (IC50) fell in the range of 500 to 2000 nM. `FC(F)(F)Cc1cc2c(NCC3CCN(Cc4ccc(Cl)cc4C(F)(F)F)CC3)ncnc2s1` [Compound 269] came in with an IC50 of 500 to 2000 nM. Molecule `CC(=O)c1ccc(CN2CCC(CNc3ncnc4sc(CC(F)(F)F)cc34)CC2)cc1` [Compound 270] returned an IC50 of 500 to 2000 nM. `FC(F)(F)Cc1cc2c(NCC3CCN(Cc4ccc(OC(F)(F)F)cc4)CC3)ncnc2s1` [Compound 271] displayed an IC50 of 500 to 2000 nM. Take `FC(F)(F)Cc1cc2c(NCC3CCN(Cc4ccc(CN5CCOCC5)cc4)CC3)ncnc2s1` [Compound 272]: the IC50 lay in the range of 500 to 2000 nM. Next, `COc1ccc(CN2CCC(CNc3ncnc4sc(CC(F)(F)F)cc34)CC2)cc1` [Compound 273]: 500 to 2000 nM; `FC(F)(F)Cc1cc2c(NCC3CCN(Cc4ccccc4C(F)(F)F)CC3)ncnc2s1` [Compound 274]: 500 to 2000 nM; `Cc1ccc(CN2CCC(CNc3ncnc4sc(CC(F)(F)F)cc34)CC2)cc1` [Compound 275]: 500 to 2000 nM. Molecule `FC(F)(F)Cc1cc2c(NCC3CCN(Cc4ccc(C(F)(F)F)cc4)CC3)ncnc2s1` [Compound 276] showed an IC50 of 500 to 2000 nM. The result for `FC(F)(F)Cc1cc2c(NCC3CCN(Cc4ccccc4)CC3)ncnc2s1` [Compound 277] reads 500 to 2000 nM; that for `N#Cc1cc2cc(CN3CCC(Nc4c(CO)cnc5sc(CC(F)(F)F)cc45)CC3)ccc2[nH]1` [Compound 278], less than 100 nM; that for `N#Cc1cc2cc(CN3CCC(Nc4c(C#N)cnc5sc(CC(F)(F)F)cc45)CC3)ccc2[nH]1` [Compound 279], less than 100 nM. The result for `OCc1cnc2sc(CC(F)(F)F)cc2c1NC1CCN(Cc2ccccc2)CC1` [Compound 280] reads less than 100 nM; that for `COCc1cnc2sc(CC(F)(F)F)cc2c1NC1CCN(Cc2ccc3[nH]c(C#N)cc3c2)CC1` [Compound 281], 100 to 500 nM; that for `CCCc1cc2c(NC3CCN(Cc4ccccc4)CC3)ccnc2s1` [Compound 282], 500 to 2000 nM. As to `O=C(Cc1ccc(NS(=O)(=O)N2CCCCC2)cc1Cl)N1CCN(C2=NC=NC3SC(CC(F)(F)F)=CC23)CC1` (centres unmarked) [Compound 284], the IC50 is less than 100 nM. `O=C(Cc1ccc(NS(=O)(=O)C2CC2)cc1Cl)N1CCN(C2=NC=NC3SC(CC(F)(F)F)=CC23)CC1` (centres unmarked) [Compound 285] yielded an IC50 of less than 100 nM.
